Strand notation (5' to 3'): a small letter for the sugar, then the base; units joined by * are phosphorothioate-linked, units joined directly phosphodiester-linked; [ ] holds rarer units or linkages, { } end groups; capitals alone tell only the bases. k = constrained ethyl (cEt); [5mC] = 5-methylcytosine; d = 2'-deoxy (DNA)
Tested on: Yap1 mRNA
Assay: Antisense inhibition of human Yap1 in A-431 cells by cEt gapmers, single dose (Example 3, RTS36584)
Type: cell-based
How it was run: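 Values are % untreated control: Yap1 mRNA by quantitative RT-PCR (RTS36584), normalized to total RNA by RiboGreen. Before RNA isolation, 5,000 A-431 cells per well were exposed ~48 h to 2,000 nM 16-mer cEt gapmer, delivered without transfection reagent.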

[1] = Table 13, A-431 cells, 5,000 cells per well, free uptake, 2,000 nM modified oligonucleotide, approx. 48 hours, RTS36584, normalized to RIBOGREEN, Yap1 mRNA relative to untreated control cells
[2] = Table 35, Yap1 mRNA as percent of untreated control, 3-10-3 cEt gapmers targeting SEQ ID NO: 1 and 2, single dose
[3] = Table 26, Yap1 mRNA by 3-10-3 cEt gapmers targeting SEQ ID NO.: 1, and 2, percent of untreated control
[4] = Table 34, Yap1 mRNA as percent of untreated control, 3-10-3 cEt gapmers targeting SEQ ID NO: 1 and 2, single dose
[5] = Table 11, A-431 cells, 5,000 cells per well, free uptake, 2,000 nM oligonucleotide, approx. 48 hours, primer probe set RTS36584, Yap1 mRNA normalized to RIBOGREEN, percent of untreated control
[6] = Table 27, Yap1 mRNA by 3-10-3 cEt gapmers targeting SEQ ID NO.: 1, and 2, percent of untreated control
[7] = Table 10, A-431 cells, 5,000 cells per well, free uptake, 2,000 nM oligonucleotide, approx. 48 hours, primer probe set RTS36584, Yap1 mRNA normalized to RIBOGREEN, percent of untreated control
[8] = Table 12, A-431 cells, 5,000 cells per well, free uptake, 2,000 nM modified oligonucleotide, approx. 48 hours, RTS36584, normalized to RIBOGREEN, Yap1 mRNA relative to untreated control cells
[9] = Table 8, A-431 cells, 5,000 cells per well, free uptake, 2,000 nM, approximately 48 hours, RTS36584, normalized to RIBOGREEN, Yap1 mRNA relative to untreated control cells
[10] = Table 28, Yap1 mRNA as percent of untreated control, 3-10-3 cEt gapmers targeting SEQ ID NO.: 1, and 2
[11] = Table 9, A-431 cells, 5,000 cells per well, free uptake, 2,000 nM, approximately 48 hours, RTS36584, normalized to RIBOGREEN, Yap1 mRNA relative to untreated control cells
[12] = Table 29, Yap1 mRNA as percent of untreated control, 3-10-3 cEt gapmers targeting SEQ ID NO.: 1, and 2

Substance: 958440 (antisense kT*kG*k[5mC]*dG*d[5mC]*d[5mC]*d[5mC]*d[5mC]*dG*dG*d[5mC]*dT*d[5mC]*k[5mC]*kA*k[5mC]) [Compound 958440]
- YAP1 (% UTC) [1]: 54 % UTC

Substance: 1076501 (k[5mC]*kA*kT*dA*dA*d[5mC]*dA*d[5mC]*dT*dT*dA*dA*dG*kG*kT*kG; antisense) [compound 1076501]
- YAP1 (% UTC) [2]: 97 % UTC

Substance: 958635 (antisense kG*kT*kT*dT*dA*dG*dG*d[5mC]*dA*dA*dG*d[5mC]*dA*kG*k[5mC]*kT) [Compound 958635]
- YAP1 (% UTC) [1]: 43 % UTC

Substance: 958625 (antisense kT*kG*k[5mC]*dT*dG*dG*dG*dA*dT*dT*dG*dA*dT*kA*kT*kT) [Compound 958625]
- YAP1 (% UTC) [1]: 6 % UTC

Substance: 1074284 (antisense k[5mC]*kA*kA*dA*dA*d[5mC]*dG*dA*dG*dG*dG*dT*d[5mC]*kA*kA*kG) [compound 1074284]
- YAP1 (% UTC) [3]: 21 % UTC

Substance: 1075540 (kG*k[5mC]*kT*dT*dA*dA*dG*dG*dG*dA*dT*dG*dG*kA*kA*k[5mC]; antisense) [compound 1075540]
- YAP1 (% UTC) [4]: 78 % UTC

Substance: 1076044 (kA*kT*k[5mC]*dA*dA*dA*dA*dA*dG*dG*d[5mC]*dT*dA*kT*kT*kG; antisense) [compound 1076044]
- YAP1 (% UTC) [3]: 73 % UTC

Substance: 958595 (k[5mC]*k[5mC]*kA*d[5mC]*dA*dT*d[5mC]*dA*dA*dG*dG*d[5mC]*dT*kA*kT*kG; antisense) [Compound 958595]
- YAP1 (% UTC) [1]: 8 % UTC

Substance: 958458 (antisense kG*kT*kT*d[5mC]*dA*dT*d[5mC]*dT*dG*dG*dG*dA*d[5mC]*kA*kG*k[5mC]) [Compound 958458]
- YAP1 (% UTC) [5]: 12 % UTC

Substance: 1074317 (antisense kG*kA*kG*dA*dA*dT*dT*dT*dG*d[5mC]*dT*dG*dT*kG*k[5mC]*kT) [compound 1074317]
- YAP1 (% UTC) [6]: 12 % UTC

Substance: 958535 (kG*kG*kG*dT*d[5mC]*dA*dA*dT*dT*dT*dT*d[5mC]*dA*kG*k[5mC]*kA; antisense) [Compound 958535]
- YAP1 (% UTC) [1]: 10 % UTC

Substance: 1074772 (kA*kG*kT*dT*dA*dA*dA*dA*dT*d[5mC]*dT*dT*dA*kT*k[5mC]*k[5mC]; antisense) [compound 1074772]
- YAP1 (% UTC) [4]: 80 % UTC

Substance: 958492 (kT*kG*kT*d[5mC]*dA*dG*dA*d[5mC]*d[5mC]*dA*dG*dT*dA*kA*kA*kT; antisense) [Compound 958492]
- YAP1 (% UTC) [7]: 12 % UTC

Substance: 958454 (antisense kG*kG*kA*dA*dT*dG*dA*dG*d[5mC]*dT*d[5mC]*dG*dA*kA*k[5mC]*kA) [Compound 958454]
- YAP1 (% UTC) [8]: 3 % UTC

Substance: 958411 (antisense k[5mC]*kT*kT*dT*dA*d[5mC]*d[5mC]*dA*dA*dA*dA*d[5mC]*dG*kA*kG*kG) [Compound 958411]
- YAP1 (% UTC) [9]: 90 % UTC

Substance: 958409 (antisense kT*kT*kA*d[5mC]*d[5mC]*dA*dA*dA*dA*d[5mC]*dG*dA*dG*kG*kG*kT) [Compound 958409]
- YAP1 (% UTC) [9]: 99 % UTC

Substance: 958480 (antisense kA*kA*k[5mC]*dT*dG*dG*d[5mC]*dT*dT*dA*dT*dG*dG*kA*kA*kA) [Compound 958480]
- YAP1 (% UTC) [1]: 24 % UTC

Substance: 1076238 (kG*kA*kT*dG*dA*dA*dT*dA*dG*d[5mC]*dT*dA*dA*kG*kA*kA; antisense) [compound 1076238]
- YAP1 (% UTC) [10]: 30 % UTC

Substance: 958774 (antisense kT*kG*k[5mC]*dT*dA*dG*dA*dT*dA*dT*d[5mC]*dG*d[5mC]*k[5mC]*kA*kA) [Compound 958774]
- YAP1 (% UTC) [8]: 33 % UTC

Substance: 958626 (antisense kT*kG*kG*dG*d[5mC]*dA*dA*dA*dG*dT*dT*d[5mC]*d[5mC]*kT*kA*kT) [Compound 958626]
- YAP1 (% UTC) [11]: 158 % UTC

Substance: 958362 (antisense kA*kG*k[5mC]*dT*d[5mC]*dG*dA*dA*d[5mC]*dA*dT*dG*d[5mC]*kT*kG*kT) [Compound 958362]
- YAP1 (% UTC) [9]: 58 % UTC

Substance: 1075756 (kA*kT*kT*dT*dA*d[5mC]*d[5mC]*d[5mC]*dT*dG*d[5mC]*d[5mC]*dA*k[5mC]*kT*kT; antisense) [compound 1075756]
- YAP1 (% UTC) [3]: 49 % UTC

Substance: 1075630 (antisense kT*kA*kT*dA*dA*d[5mC]*d[5mC]*dA*dA*dA*dT*dG*d[5mC]*k[5mC]*kG*k[5mC]) [compound 1075630]
- YAP1 (% UTC) [10]: 60 % UTC

Substance: 958620 (antisense kA*kA*kG*d[5mC]*d[5mC]*dT*dT*dG*dG*dG*dT*d[5mC]*dT*kA*kG*k[5mC]) [Compound 958620]
- YAP1 (% UTC) [1]: 57 % UTC

Substance: 958632 (antisense k[5mC]*kT*k[5mC]*d[5mC]*dG*dA*d[5mC]*dA*dG*dG*dA*dG*dA*k[5mC]*kT*kA) [Compound 958632]
- YAP1 (% UTC) [7]: 55 % UTC

Substance: 958746 (antisense kG*kT*kT*dA*dT*d[5mC]*d[5mC]*dT*d[5mC]*dT*dA*dT*dA*kG*kT*k[5mC]) [Compound 958746]
- YAP1 (% UTC) [11]: 22 % UTC

Substance: 1074804 (kT*kA*kG*d[5mC]*dA*dA*dA*dG*dT*d[5mC]*dA*d[5mC]*dT*kT*k[5mC]*k[5mC]; antisense) [compound 1074804]
- YAP1 (% UTC) [4]: 15 % UTC

Substance: 1076334 (antisense kA*k[5mC]*k[5mC]*dT*dA*dT*dA*dA*dG*dG*dA*dA*dT*kG*kG*k[5mC]) [compound 1076334]
- YAP1 (% UTC) [10]: 108 % UTC

Substance: 1075023 (antisense kG*kT*kA*dT*dT*dT*dA*d[5mC]*dA*dA*d[5mC]*d[5mC]*dT*kA*kG*kA) [compound 1075023]
- YAP1 (% UTC) [12]: 18 % UTC

Substance: 1075823 (kT*kA*kT*dT*dA*dG*dA*dG*dG*dT*dT*d[5mC]*d[5mC]*kA*kG*kG; antisense) [compound 1075823]
- YAP1 (% UTC) [12]: 30 % UTC

Substance: 958567 (kT*k[5mC]*kA*dA*d[5mC]*d[5mC]*dT*dA*dT*dG*dA*dA*d[5mC]*kT*kA*kT; antisense) [Compound 958567]
- YAP1 (% UTC) [7]: 3 % UTC

Substance: 958542 (kT*kA*kT*dA*dG*dT*dA*dT*dT*d[5mC]*dT*dA*dT*k[5mC]*k[5mC]*kA; antisense) [Compound 958542]
- YAP1 (% UTC) [7]: 4 % UTC

Substance: 958363 (antisense kT*kG*kA*dG*d[5mC]*dT*d[5mC]*dG*dA*dA*d[5mC]*dA*dT*kG*k[5mC]*kT) [Compound 958363]
- YAP1 (% UTC) [9]: 70 % UTC

Substance: 1075950 (antisense kT*kG*kA*d[5mC]*dA*dA*dT*dA*d[5mC]*d[5mC]*dT*dT*d[5mC]*k[5mC]*kT*kA) [compound 1075950]
- YAP1 (% UTC) [10]: 30 % UTC

Substance: 1074773 (k[5mC]*kA*kG*dT*dT*dA*dA*dA*dA*dT*d[5mC]*dT*dT*kA*kT*k[5mC]; antisense) [compound 1074773]
- YAP1 (% UTC) [2]: 94 % UTC

Substance: 958737 (antisense kG*kG*kA*dA*dT*dA*d[5mC]*dA*dA*dG*d[5mC]*d[5mC]*d[5mC]*kG*kA*kG) [Compound 958737]
- YAP1 (% UTC) [7]: 8 % UTC

Substance: 958527 (kG*kT*kA*dA*dG*dT*dA*dA*dG*dA*dA*d[5mC]*dA*kA*kT*k[5mC]; antisense) [Compound 958527]
- YAP1 (% UTC) [7]: 4 % UTC

Substance: 958691 (antisense kT*k[5mC]*kA*dG*dT*dT*dG*dG*d[5mC]*dA*dA*d[5mC]*dA*kG*kT*k[5mC]) [Compound 958691]
- YAP1 (% UTC) [11]: 20 % UTC

Substance: 1074901 (antisense kT*kA*kT*dT*dA*dA*d[5mC]*dT*dT*dT*dT*dG*dG*kG*k[5mC]*kA) [compound 1074901]
- YAP1 (% UTC) [2]: 61 % UTC

Substance: 1075405 (antisense k[5mC]*kT*kA*dT*dA*dT*dA*dA*d[5mC]*d[5mC]*dT*dG*dA*kA*k[5mC]*kT) [compound 1075405]
- YAP1 (% UTC) [6]: 84 % UTC

Substance: 958483 (antisense kG*kA*kG*dG*dA*dT*dT*dA*dA*dA*dG*dT*dA*kT*k[5mC]*kT) [Compound 958483]
- YAP1 (% UTC) [5]: 17 % UTC

Substance: 958650 (kT*k[5mC]*kA*dA*dT*dT*dG*dA*dG*dT*d[5mC]*dT*dG*k[5mC]*kT*kA; antisense) [Compound 958650]
- YAP1 (% UTC) [1]: 3 % UTC

Substance: 1074164 (k[5mC]*k[5mC]*kA*dG*dG*d[5mC]*dG*dA*dG*d[5mC]*dG*dA*dG*kG*kG*k[5mC]; antisense) [compound 1074164]
- YAP1 (% UTC) [4]: 135 % UTC

Substance: 1074356 (antisense kG*kA*kG*dG*dG*dA*d[5mC]*dA*d[5mC]*dT*dG*dT*dA*kG*k[5mC]*kT) [compound 1074356]
- YAP1 (% UTC) [4]: 43 % UTC

Substance: 958637 (antisense k[5mC]*k[5mC]*kG*d[5mC]*dA*dG*dA*dG*dA*dG*dA*dA*dA*k[5mC]*kT*k[5mC]) [Compound 958637]
- YAP1 (% UTC) [7]: 101 % UTC

Substance: 1074125 (kG*k[5mC]*kG*dG*d[5mC]*dT*dG*d[5mC]*dG*d[5mC]*d[5mC]*dT*d[5mC]*kG*kG*kG; antisense) [compound 1074125]
- YAP1 (% UTC) [6]: 94 % UTC

Substance: 958355 (antisense k[5mC]*kG*kT*dT*dG*dG*d[5mC]*d[5mC]*dG*dT*d[5mC]*dT*dT*kG*kG*kG) [Compound 958355]
- YAP1 (% UTC) [9]: 51 % UTC

Reference: patent US11214803B2, “Modulators of YAP1 expression” (Ionis Pharmaceuticals, Inc., priority 2019, dated 2022)
